Active and inactive are the calls of the source. The rule behind the calls is not given here.
What was measured:
Staphylococcus aureus [1] = test: Antibacterial activity against Staphylococcus aureus ATCC 29213 incubated for 16 to 18 hrs by broth dilution method; format: functional; conditions: time 16-18 hrs
Staphylococcus aureus [2] = test: Antibacterial activity against methicillin resistant Staphylococcus aureus M20 incubated for 16 to 18 hrs by broth dilution method; format: functional; conditions: time 16-18 hrs
Staphylococcus aureus [3] = test: Antibacterial activity against methicillin resistant Staphylococcus aureus M22 incubated for 16 to 18 hrs by broth dilution method; format: functional; conditions: time 16-18 hrs
Staphylococcus aureus [4] = test: Antibacterial activity against methicillin resistant Staphylococcus aureus M23 incubated for 16 to 18 hrs by broth dilution method; format: functional; conditions: time 16-18 hrs
[5] = Selectivity index, ratio of HC50 for sheep RBC to MIC for Staphylococcus aureus ATCC 29213; format: toxicity; conditions: sheep red blood cells, read-out: Selectivity Index
Staphylococcus aureus [6] = test: Bactericidal activity against Staphylococcus aureus ATCC 29213 at 8 times MIC within 6 hrs by time kill assay; format: functional, organism-based
Cell membrane [7] = test: Induction of membrane permeability in methicillin resistant Staphylococcus aureus 20 assessed as broken cell membrane by measuring increased fluorescence intensity at 32 ug/ml measured at 2 mins interval over 20 mins by SYTOX green staining based assay; format: cell membranes; conditions: dose 32.0 µg/ml
Staphylococcus aureus [8] = test: Antibacterial activity against methicillin resistant Staphylococcus aureus 20 incubated for 16 to 18 hrs in presence of 2 to 64 ug/ml phosphatidylglycerol by checkerboard broth dilution method; format: functional, organism-based; conditions: time 16-18 hrs
Staphylococcus aureus [9] = test: Antibacterial activity against methicillin resistant Staphylococcus aureus 20 incubated for 16 to 18 hrs in presence of 2 to 64 ug/ml phosphatidylethanolamine by checkerboard broth dilution method; format: functional, organism-based; conditions: time 16-18 hrs
Staphylococcus aureus [10] = test: Antibacterial activity against methicillin resistant Staphylococcus aureus 20 incubated for 16 to 18 hrs in presence of 2 to 64 ug/ml peptidoglycan by checkerboard broth dilution method; format: functional, organism-based; conditions: time 16-18 hrs
Cell membrane [11] = test: Induction of membrane disruption in methicillin resistant Staphylococcus aureus 20 assessed as increase in intracellular ROS level incubated for 1 hr by DCFH-DA staining based analysis; format: cell membranes; conditions: dose 2-128 µg/ml
Staphylococcus aureus [12] = test: Upregulation of cidA gene expression in methicillin resistant Staphylococcus aureus N315 at 4 ug/ml incubated for 4 hrs by RNA-sequencing analysis; format: functional; conditions: dose 4.0 µg/ml
Staphylococcus aureus [13] = test: Upregulation of mspA gene expression in methicillin resistant Staphylococcus aureus N315 at 4 ug/ml incubated for 4 hrs by RNA-sequencing analysis; format: functional; conditions: dose 4.0 µg/ml
Staphylococcus aureus [14] = test: Downregulation of sasA gene expression in methicillin resistant Staphylococcus aureus N315 at 4 ug/ml incubated for 4 hrs by RNA-sequencing analysis; format: functional; conditions: dose 4.0 µg/ml
Staphylococcus aureus [15] = test: Downregulation of srtA gene expression in methicillin resistant Staphylococcus aureus N315 at 4 ug/ml incubated for 4 hrs by RNA-sequencing analysis; format: functional; conditions: dose 4.0 µg/ml
Staphylococcus aureus [16] = test: Inhibition of DNA replication in methicillin resistant Staphylococcus aureus N315 at 4 ug/ml incubated for 4 hrs by RNA-sequencing analysis; format: functional, organism-based; conditions: dose 4.0 µg/ml
Staphylococcus aureus [17] = test: Inhibition of transcription in methicillin resistant Staphylococcus aureus N315 at 4 ug/ml incubated for 4 hrs by RNA-sequencing analysis; format: functional, organism-based; conditions: dose 4.0 µg/ml
Staphylococcus aureus [18] = test: Inhibition of arginine synthesis in methicillin resistant Staphylococcus aureus N315 at 4 ug/ml incubated for 4 hrs by RNA-sequencing analysis; format: functional, organism-based; conditions: dose 4.0 µg/ml
Staphylococcus aureus [19] = test: Inhibition of lysine synthesis in methicillin resistant Staphylococcus aureus N315 at 4 ug/ml incubated for 4 hrs by RNA-sequencing analysis; format: functional, organism-based; conditions: dose 4.0 µg/ml
Staphylococcus aureus [20] = test: Inhibition of methionine synthesis in methicillin resistant Staphylococcus aureus N315 at 4 ug/ml incubated for 4 hrs by RNA-sequencing analysis; format: functional, organism-based; conditions: dose 4.0 µg/ml
[21] = Cytotoxicity against human L02 cells assessed as survival rate at 16 ug/ml incubated for 24 hrs by CCK8 assay; format: toxicity, cell-based; conditions: at 16 µg/mL, read-out: Survival
[22] = Toxicity in Kunming mouse assessed as effect on survival at 5 to 80 mg/kg, sc measured after 24 hrs; format: organism-based; conditions: in vivo, dose 5-80 mg/kg
[23] = Toxicity in Kunming mouse assessed as skin swelling at 40 to 80 mg/kg, sc measured after 24 hrs; format: organism-based; conditions: in vivo, dose 40-80 mg/kg
[24] = Toxicity in Kunming mouse assessed as change in white blood cell counts at 20 mg/kg, sc measured after 24 hrs; format: organism-based; conditions: in vivo
[25] = Toxicity in Kunming mouse assessed as change in platelet count at 20 mg/kg, sc measured after 24 hrs; format: organism-based; conditions: in vivo
[26] = Toxicity in Kunming mouse assessed as change in albumin level at 20 mg/kg, sc measured after 24 hrs; format: organism-based; conditions: in vivo
[27] = Toxicity in Kunming mouse assessed as change in creatinine level at 20 mg/kg, sc measured after 24 hrs; format: organism-based; conditions: in vivo
[28] = Toxicity in Kunming mouse assessed as skin abnormalities at 20 mg/kg, sc measured after 24 hrs; format: organism-based; conditions: in vivo
[29] = Toxicity in Kunming mouse assessed as spleen abnormalities at 10 mg/kg, sc measured after 24 hrs; format: organism-based; conditions: in vivo
[30] = Toxicity in Kunming mouse assessed as kidney abnormalities at 10 mg/kg, sc measured after 24 hrs; format: organism-based; conditions: in vivo
Staphylococcus aureus [31] = test: Antibacterial activity against methicillin resistant Staphylococcus aureus 20 infected in Kunming mouse skin abscess model assessed as appearance of smooth back skin at 10 mg/kg, sc measured after 2 hrs; format: functional, organism-based
Staphylococcus aureus [32] = test: Antibacterial activity against methicillin resistant Staphylococcus aureus 20 infected in Kunming mouse skin abscess model assessed as reduction in severity of skin abscess at 5 mg/kg, sc measured after 2 hrs; format: functional, organism-based
Staphylococcus aureus [33] = test: Antibacterial activity against methicillin resistant Staphylococcus aureus 20 infected in Kunming mouse skin abscess model assessed as reduction in inflammatory cells in infection sites at 5 to 10 mg/kg, sc measured after 2 hrs; format: functional, organism-based; conditions: dose 5-10 mg/kg
Staphylococcus aureus [34] = test: Antibacterial activity against methicillin resistant Staphylococcus aureus 20 infected in Kunming mouse skin abscess model assessed as reduction in inflammatory cell infiltration in subcutaneous layer at 10 mg/kg, sc measured after 2 hrs; format: functional, organism-based
Staphylococcus aureus [35] = test: Antibacterial activity against methicillin resistant Staphylococcus aureus 20 infected in Kunming mouse skin abscess model assessed as reduction in bacterial load at 5 mg/kg, sc measured after 2 hrs; format: functional; parameters: scale not given: the % may be the effect or the level left
[36] = Toxicity in Kunming mouse skin abscess model infected with methicillin resistant Staphylococcus aureus assessed as heart damage at 5 to 10 mg/kg, sc measured after 2 hrs by H and E staining based assay; format: organism-based; conditions: in vivo, dose 5-10 mg/kg
[37] = Toxicity in Kunming mouse skin abscess model infected with methicillin resistant Staphylococcus aureus assessed as liver damage at 5 to 10 mg/kg, sc measured after 2 hrs by H and E staining based assay; format: organism-based; conditions: in vivo, dose 5-10 mg/kg
[38] = Toxicity in Kunming mouse skin abscess model infected with methicillin resistant Staphylococcus aureus assessed as spleen damage at 5 to 10 mg/kg, sc measured after 2 hrs by H and E staining based assay; format: organism-based; conditions: in vivo, dose 5-10 mg/kg
Cell membrane [39] = test: Induction of membrane disruption in methicillin resistant Staphylococcus aureus 20 assessed as viable cells with intact membrane at 64 ug/ml incubated for 2 hrs by SYTO9/PI staining based flow cytometry analysis (reference value: 98.7%); format: cell membranes; conditions: dose 64.0 µg/ml
Cell membrane [40] = test: Induction of membrane disruption in methicillin resistant Staphylococcus aureus 20 assessed as viable cells with intact membrane at 128 ug/ml incubated for 2 hrs by SYTO9/PI staining based flow cytometry analysis (reference value: 98.7%); format: cell membranes; conditions: dose 128.0 µg/ml

C=CCc1cc(-c2ccc(OCCC[N+](C)(C)CC(=O)NCCCC)c(CC=C)c2)c2oc(-c3c(Cl)cccc3Cl)nc2c1.[Br-]
MIC (Staphylococcus aureus [1]): 2 µg/mL
MIC (Staphylococcus aureus [2]): 2 µg/mL
MIC (Staphylococcus aureus [3]): 2 µg/mL
MIC (Staphylococcus aureus [4]): 4 µg/mL
selectivity ratio [5]: 54.5
Activity (Staphylococcus aureus [6]): Active
Activity (Cell membrane [7]): Active
Activity (Staphylococcus aureus [8]): inactive
Activity (Staphylococcus aureus [9]): Active
Activity (Staphylococcus aureus [10]): Active
Activity (Cell membrane [11]): Dose-Dependent Effect
Activity (Staphylococcus aureus [12]): Active
Activity (Staphylococcus aureus [13]): Active
Activity (Staphylococcus aureus [14]): Active
Activity (Staphylococcus aureus [15]): Active
inhibition (Staphylococcus aureus [16]): Active
inhibition (Staphylococcus aureus [17]): Active
inhibition (Staphylococcus aureus [18]): Active
inhibition (Staphylococcus aureus [19]): Active
inhibition (Staphylococcus aureus [20]): Active
viability at 24 h, 16 ug/ml [21]: 75%
Activity [22]: Non-Toxic
Activity [23]: Toxic
Activity [24]: Non-Toxic
Activity [25]: Non-Toxic
Activity [26]: Non-Toxic
Activity [27]: Non-Toxic
Activity [28]: Non-Toxic
Activity [29]: Non-Toxic
Activity [30]: Non-Toxic
Activity (Staphylococcus aureus [31]): Active
Activity (Staphylococcus aureus [32]): Active
Activity (Staphylococcus aureus [33]): Active
Activity (Staphylococcus aureus [34]): Active
Activity (Staphylococcus aureus [35]): 96.54%
Activity [36]: Non-Toxic
Activity [37]: Non-Toxic
Activity [38]: Non-Toxic
Activity (Cell membrane [39]): 0.28%
Activity (Cell membrane [40]): 0%

Reference: ChEMBL document CHEMBL5608246, “Membrane-Targeting Amphiphilic Honokiol Derivatives Containing an Oxazole Moiety as Potential Antibacterials against Methicillin-Resistant Staphylococcus aureus” (J Med Chem, 2024)
